Assays:
Type in all cases: physicochemical
[1] = VT-XRPD and heating experiments: dehydration of (I) to (II) and conversion back
Protocol: The compound of formula (II) can be prepared by heating the compound of formula (I) under vacuum or by exposing the compound of formula (I) to dehydrating conditions.
To confirm this hypothesis, variable-temperature XRPD (VT-XRPD) and heating experiments were performed. […] The ^1H NMR results in FIG. 22B show no difference before and after heating, likely because the dehydrated product converted back to (I) after being exposed to residual water in DMSO-d6. TGA was also performed by heating (I) to 160° C. and cooling to room temperature, followed by re-heating to 160° C. after placed being placed under ambient conditions overnight. […] All the results were consistent with the hypothesis that dehydration and hydration reactions would occur during heating and exposure to air, respectively.

[2] = Dynamic vapor sorption (DVS) of Type A
Excerpt: After preparation by the method described in Example 1, the starting material was characterized by X-ray powder diffraction (XRPD), thermo gravimetric analysis (TGA), differential scanning calorimetry (DSC), dynamic vapor sorption (DVS), high performance liquid chromatography (HPLC), and ^1H solution nuclear magnetic resonance (^1H NMR).
(§1) This difference was postulated to be caused by preferred orientation, since the morphology of Type A starting material was rod-like. A two-stage weight loss of 0.5% up to 100° C. and 10.0% from 100° C. to 160° C. was observed on the TGA curve. […] (onset temperature). The DVS isotherm plot of Type A was collected at 25° C. between 0 and 95% RH.

[3] = TGA weight loss (ramp, cycle and isothermal TGA)
Protocol: TGA data were collected using a TA Q5000/5500 TGA from TA Instruments. DSC was performed using a TA Q2000/2500 DSC from TA Instruments.
as §1
The results of VT-XRPD and heating experiment preliminarily confirmed the dehydration reaction. However, the theoretical weight loss of dehydration was calculated to be 5.4%, which was not consistent with the observed TGA weight loss of 10.0%. To further explain the difference on weight loss, the TGA data of Type A were re-visited. The results in FIG. 23B indicate that there might be 2 events involved in the TGA weight loss from 100° C. to 160° C., one of which is the dehydration of (I) (the theoretical weight loss of dehydration was close to the TGA weight loss up to 128° C.), while the other may be the complete decomposition or sublimation of the dehydrated product (if it's partial decomposition, the sample after heated should not convert back to (I) upon exposure to air).
Cycle TGA was conducted by heating Type A to 160° C. and cooling to 50° C. (with N2 purge, without exposure to air), followed by re-heating to 160° C. […] Isothermal TGA was conducted by heating Type A to 160° C. and isothermal at 160° C. for 0.5 hr. A weight loss of >20% was observed during the isothermal stage FIG. 24B, which was postulated to be decomposition/sublimation.

Row | water up-take (DVS) ([2]; 25° C./80% RH) | form change after the DVS test (XRPD) ([2]; DVS at 25° C. between 0 and 95% RH) | TGA weight loss ([3]; from 100° C. to 160° C.) | cycle TGA weight loss on the re-heating curve ([3]; heated to 160° C., cooled to 50° C. with N2 purge, re-heated, up to 150° C.) | isothermal TGA weight loss ([3]; isothermal at 160° C. for 0.5 hr) | Wt Loss on TGA (%, up to 100° C.) ([3]; up to 100° C.) | XRPD pattern of dehydrated product after exposure to air ([1]; after heating to 140° C. with N2 purge, exposed in air for 3 hrs) | behaviour on exposure to water ([1]; exposed to water) | Structure (SMILES) | XRPD after heating experiment ([1]; heated to 160° C. and cooled to RT, exposed to air)
1 | 0.1% | no form change was observed | 10.0% | 1.3% | > 20% | 0.5% |  |  | OB1OCc2cc(Cl)ccc21 [(I), 5-chlorobenzo[c][1,2]oxaborol-1(3H)-ol] | partial conversion to the dehydrated product (II)
2 |  |  |  |  |  |  | converted back to Type A | reverts to the compound of formula (I) | Clc1ccc2c(c1)COB2OB1OCc2cc(Cl)ccc21 [(II), 1,1′-oxybis(5-chloro-1,3-dihydrobenzo[c][1,2]oxaborole)] | 
